We go through one compound from patent publication US5773459A, “Urea- and thiourea-type compounds” (Sugen, Inc., priority 1995, dated 1998).

For this assay, the system named is HUV-EC-C cells (human umbilical vein endothelial cells). Put plainly: HUV-EC-C Flk-1 assay (3H-thymidine incorporation). Type of assay: cell-based. To be noted: Endothelial cell. How it is done:
The HUV-EC-C Flk-1 assay can be performed as follows:
1. Wash and trypsinize HUV-EC-C cells (human umbilical vein endothelial cells, American Type Culture Collection; catalogue no. 1730-CRL). Wash with Dulbecco's phosphate-buffered saline (D-PBS; obtained from Gibco BRL; catalogue no. 14190-029) 2 times at about 1 ml/10 cm^2 of tissue culture flask. Trypsinize with 0.05% trypsin-EDTA in non-enzymatic cell dissociation solution (Sigma Chemical Company; catalogue no. C-1544). The 0.05% trypsin was made by diluting 0.25% trypsin/l mM EDTA (Gibco; catalogue no. 25200-049) in the cell dissociation solution. Trypsinize with about 1 ml/25-30 cm^2 of tissue culture flask for about 5 minutes at 37° C. After cells have detached from the flask, add an equal volume of D-PBS and transfer to a 50 ml sterile centrifuge tube (Fisher Scientific; catalogue no. 05-539-6).
2. Wash the cells with about 35 ml D-PBS in the 50 ml sterile centrifuge tube by adding the D-PBS, centrifuge for 10 minutes at approximately 200×g, aspirate the supernatant, and resuspend with 35 ml D-PBS. Repeat the wash two more times, resuspend the cells in about 1 ml assay medium/15 cm^2 of tissue culture flask. Assay medium consists of F12K medium (Gibco BRL; catalogue no. 21127-014)+0.5% heat-inactivated fetal bovine serum. […]

The structures appear in SMILES notation. Like-named read-outs stand apart in the source and are kept apart here.

As for `CC(C)S(=O)(=O)c1csc(NC(=O)Nc2ccc(C(C)(C)C)cc2)c1Cl` [Example Z1, N-[3-Chloro-4-(isopropylsulfonyl)thien-2-yl]-N'-(4-t-butylphenyl)urea], the IC50 is, setting by setting: (VEGF stimulated, read-out: GROWTH DATA: HUV-EC-C/VEGF) 2.9 µM; (aFGF stimulated, read-out: GROWTH DATA: HUV-EC-C/aFGF) 30 µM.
